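How tested: cells in 96-well plates exposed to compound for 48 hours at five concentrations. Here, GI50 denotes the concentration required for 50% inhibition of growth.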 The source made the active and inactive calls. No stated cut-off is given here; in the data, active = GI50 up to about 1.1 µM and inactive = higher.
Experiments:
Test in all cases: DTP human tumour cell line panel, 48 h
RPMI-8226 = system: RPMI-8226
DLD-1 = system: DLD-1
NCI-H460 = system: NCI-H460
SF-268 = system: SF-268
UO-31 = system: UO-31
A498 = system: A498
U-251 = system: U-251
SK-OV-3 = system: SK-OV-3
OVCAR-8 = system: OVCAR-8
SNB-75 = system: SNB-75
NCI-H522 = system: NCI-H522
HCT-15 = system: HCT-15
HCT-116 = system: HCT-116
CCRF-CEM = system: CCRF-CEM
SF-295 = system: SF-295
SW-620 = system: SW-620
NCI-H23 = system: NCI-H23
BT-549 = system: BT-549
MDA-MB-231 = system: MDA-MB-231
MCF7 = system: MCF7

Row | Compound | GI50 (RPMI-8226) | GI50 (DLD-1) | GI50 (NCI-H460) | GI50 (SF-268) | GI50 (UO-31) | GI50 (A498) | GI50 (U-251) | GI50 (SK-OV-3) | GI50 (OVCAR-8) | GI50 (SNB-75) | GI50 (NCI-H522) | GI50 (HCT-15) [µM] | GI50 (HCT-116) | GI50 (CCRF-CEM) | GI50 (SF-295) | GI50 (SW-620) | GI50 (NCI-H23) | GI50 (BT-549) | GI50 (MDA-MB-231) | GI50 (MCF7)
1 | O=C(O)c1ccc([N+](=O)[O-])c2c(=O)c3ccccc3[nH]c12 | > 100 µM (inactive) | > 100 µM (inactive) | > 100 µM (inactive) | > 100 µM (inactive) | > 100 µM (inactive) | > 100 µM (inactive) | > 100 µM (inactive) | > 100 µM (inactive) | > 100 µM (inactive) | 99.5 µM (inactive) | > 100 µM (inactive) | > 100 | > 100 µM (inactive) | > 100 µM (inactive) | > 100 µM (inactive) | > 100 µM (inactive) | – | – | – | –
2 | Cc1ccc(Cl)c(NC(=O)C(=O)C(C(=O)c2ccncc2)C2OC(=O)c3ccccc32)c1 (stereo unspecified) | > 100 µM (inactive) | > 100 µM (inactive) | > 100 µM (inactive) | > 100 µM (inactive) | > 100 µM (inactive) | > 100 µM (inactive) | > 100 µM (inactive) | > 100 µM (inactive) | > 100 µM (inactive) | > 100 µM (inactive) | > 100 µM (inactive) | > 100 | > 100 µM (inactive) | 0.512 µM (active) | > 100 µM (inactive) | > 100 µM (inactive) | > 100 µM (inactive) | – | – | –
3 | CCc1ccccc1NC(=O)/C(CC(=O)c1c(C)[n+]([O-])c2ccccc2[n+]1[O-])=N\NS(=O)(=O)c1ccc(C)cc1 | 12.2 µM (inactive) | 24 µM (inactive) | 25.6 µM (inactive) | 25.8 µM (inactive) | > 100 µM (inactive) | > 100 µM (inactive) | 27 µM (inactive) | > 100 µM (inactive) | 27 µM (inactive) | > 100 µM (inactive) | 16.1 µM (inactive) | 33.7 | 16.8 µM (inactive) | 16.7 µM (inactive) | > 100 µM (inactive) | 25.9 µM (inactive) | 35.2 µM (inactive) | – | – | –
4 | Cc1ccc(NC(=O)CCc2nnc3s/c(=C\c4cccc([N+](=O)[O-])c4)c(=O)n23)cc1 | > 100 µM (inactive) | > 100 µM (inactive) | > 100 µM (inactive) | > 100 µM (inactive) | > 100 µM (inactive) | > 100 µM (inactive) | 47.9 µM (inactive) | > 100 µM (inactive) | > 100 µM (inactive) | 40.6 µM (inactive) | 52.6 µM (inactive) | > 100 | > 100 µM (inactive) | 66.1 µM (inactive) | 59.2 µM (inactive) | 19.3 µM (inactive) | > 100 µM (inactive) | – | – | –
5 | COC(=O)N/N=C(/Cc1occc(=O)c1O)C(=O)Nc1ccc([N+](=O)[O-])cc1[N+](=O)[O-] | > 100 µM (inactive) | > 100 µM (inactive) | > 100 µM (inactive) | > 100 µM (inactive) | > 100 µM (inactive) | > 100 µM (inactive) | > 100 µM (inactive) | > 100 µM (inactive) | > 100 µM (inactive) | > 100 µM (inactive) | > 100 µM (inactive) | > 100 | > 100 µM (inactive) | > 100 µM (inactive) | > 100 µM (inactive) | > 100 µM (inactive) | > 100 µM (inactive) | – | – | –
6 | CC(=O)OC(=O)O/C=C\CCl | > 100 µM (inactive) | > 100 µM (inactive) | > 100 µM (inactive) | > 100 µM (inactive) | > 100 µM (inactive) | > 100 µM (inactive) | > 100 µM (inactive) | > 100 µM (inactive) | > 100 µM (inactive) | > 100 µM (inactive) | 13.7 µM (inactive) | > 100 | > 100 µM (inactive) | 93.8 µM (inactive) | – | > 100 µM (inactive) | – | – | – | –
7 | CC(C(=O)[O-])S(=O)(=O)O.CCc1c2cc(OC)c(OC)cc2cc2c3cc(OC)c(OC)cc3cc[n+]12 | 25.8 µM (inactive) | 65 µM (inactive) | 42.4 µM (inactive) | 1.11 µM (active) | 53.7 µM (inactive) | 53.1 µM (inactive) | 6.27 µM (inactive) | 41.6 µM (inactive) | 20 µM (inactive) | 7.94 µM (inactive) | 3.09 µM (inactive) | 38.4 | 17.8 µM (inactive) | 9.14 µM (inactive) | 67.3 µM (inactive) | 26.5 µM (inactive) | 15.9 µM (inactive) | 3.81 µM (inactive) | 20.1 µM (inactive) | 9.89 µM (inactive)
8 | Cc1ccc(NC(=O)c2cccc([N+](=O)[O-])c2O)c([N+](=O)[O-])c1 | 8.69 µM (inactive) | 14.9 µM (inactive) | 5.58 µM (inactive) | 17.9 µM (inactive) | 24.1 µM (inactive) | 16 µM (inactive) | 14.3 µM (inactive) | 26.9 µM (inactive) | 12.5 µM (inactive) | 13.7 µM (inactive) | 14.1 µM (inactive) | 14.4 | 9.38 µM (inactive) | > 100 µM (inactive) | 15.1 µM (inactive) | 16.8 µM (inactive) | 13.6 µM (inactive) | – | – | –
9 | Cn1c2ccccc2c2ccc3c(c21)C(=O)C=CC3=O | 2.32 µM (inactive) | 2.3 µM (inactive) | 16.9 µM (inactive) | 14.8 µM (inactive) | 6.93 µM (inactive) | > 45.2 µM (inactive) | 11.4 µM (inactive) | 17.1 µM (inactive) | 7.03 µM (inactive) | 16.7 µM (inactive) | 2.96 µM (inactive) | 4.56 | 4.29 µM (inactive) | 0.69 µM (active) | 24.7 µM (inactive) | 2.02 µM (inactive) | 12.7 µM (inactive) | 6.98 µM (inactive) | 6.73 µM (inactive) | 3.3 µM (inactive)

Reference: ChEMBL document CHEMBL1201862, “PubChem BioAssay data set” (2004)
